Data as given in ChEMBL document CHEMBL1201862, “PubChem BioAssay data set” (2004).
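96-well plates; 48 h exposure; 5 concentrations. Endpoints by linear interpolation between flanking doses. Not reached: highest tested concentration assigned. Here, GI50 denotes the concentration required for 50% inhibition of growth.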 The source made the active and inactive calls. Rule as the data show it: active = GI50 up to about 1.1 µM and inactive = higher.

Tests used:
Assay in all cases: NCI anticancer screen, dose series, 48 h
[1] = test system: BT-549
[2] = test system: COLO 205
[3] = test system: DU-145
[4] = test system: HOP-62
[5] = test system: HT-29
[6] = test system: KM12
[7] = test system: M14
[8] = test system: MDA-MB-231
[9] = test system: Malme-3M
[10] = test system: NCI-H226
[11] = test system: OVCAR-4
[12] = test system: SF-268
[13] = test system: SF-539
[14] = test system: SK-MEL-5
[15] = test system: SK-OV-3
[16] = test system: SNB-19
[17] = test system: SR
[18] = test system: T47D
[19] = test system: TK-10

Compound	GI50 [1]	GI50 [2]	GI50 [3]	GI50 [4]	GI50 [5]	GI50 [6]	GI50 [7]	GI50 [8]	GI50 [9]	GI50 [10]	GI50 [11]	GI50 [12]	GI50 [13]	GI50 [14]	GI50 [15]	GI50 [16]	GI50 [17]	GI50 [18]	GI50 [19]
Nc1cc(S(N)(=O)=O)ccc1SSc1ccc(S(N)(=O)=O)cc1N	> 100 µM (inactive)	> 100 µM (inactive)	> 100 µM (inactive)	> 100 µM (inactive)	> 100 µM (inactive)	> 100 µM (inactive)	> 100 µM (inactive)	> 100 µM (inactive)	> 100 µM (inactive)	> 100 µM (inactive)	> 100 µM (inactive)	> 100 µM (inactive)	> 100 µM (inactive)	> 52.4 µM (inactive)	> 100 µM (inactive)	> 100 µM (inactive)	57 µM (inactive)	> 100 µM (inactive)	> 100 µM (inactive)
COc1ccc(OC)c2nc3c(C(=O)NCCN(C)C)cccc3nc12	10.8 µM (inactive)	2.37 µM (inactive)	5.21 µM (inactive)	4.55 µM (inactive)	1.8 µM (inactive)	4.2 µM (inactive)	4.69 µM (inactive)	2.94 µM (inactive)	8.65 µM (inactive)	4.66 µM (inactive)	3.09 µM (inactive)	3.94 µM (inactive)	4.5 µM (inactive)	3.67 µM (inactive)		6.76 µM (inactive)	2.17 µM (inactive)	14.1 µM (inactive)	4.63 µM (inactive)
COc1ccc2c(c1)c(=O)c1c(NCCCN(C)CCCNc3ccc4c(=O)n(CCN(C)C)c(=O)n5c6ccc(OC)cc6c(=O)c3c45)ccc3c(=O)n(CCN(C)C)c(=O)n2c31	0.259 µM (active)	< 0.0473 µM (active)	< 0.012 µM (active)	< 0.036 µM (active)	< 0.01 µM (active)	< 0.01 µM (active)	0.594 µM (active)	0.0614 µM (active)	0.484 µM (active)	< 0.01 µM (active)	< 0.01 µM (active)	0.0998 µM (active)	0.08 µM (active)		0.217 µM (active)	< 0.01 µM (active)	< 0.01 µM (active)	0.619 µM (active)	0.119 µM (active)
[N-]=[N+]=NC[C@H]1OCO[C@H](CN=[N+]=[N-])[C@@H](OCCOCCCl)[C@@H]1OCCOCCCl	> 100 µM (inactive)	> 100 µM (inactive)	> 100 µM (inactive)	> 100 µM (inactive)	> 100 µM (inactive)	> 100 µM (inactive)	> 100 µM (inactive)	> 100 µM (inactive)	> 100 µM (inactive)	> 100 µM (inactive)	> 100 µM (inactive)	> 100 µM (inactive)	> 100 µM (inactive)	57 µM (inactive)	> 100 µM (inactive)	> 100 µM (inactive)	> 100 µM (inactive)	> 100 µM (inactive)	> 100 µM (inactive)
c1csc(-c2cscc2-c2cccs2)c1	63.4 µM (inactive)	50.8 µM (inactive)	1.31 µM (inactive)	27.6 µM (inactive)	91.4 µM (inactive)	22.3 µM (inactive)	27.7 µM (inactive)	> 100 µM (inactive)		27.1 µM (inactive)	46 µM (inactive)	> 100 µM (inactive)	20.3 µM (inactive)	46.8 µM (inactive)	32.9 µM (inactive)	> 100 µM (inactive)	27.7 µM (inactive)	> 100 µM (inactive)	91 µM (inactive)
N#Cc1c(N)c(C#N)c2c(c1-c1ccc(Cl)cc1)COc1ccccc1-2	29.9 µM (inactive)	48 µM (inactive)	21.6 µM (inactive)	14.9 µM (inactive)	13.2 µM (inactive)	28.6 µM (inactive)	38.6 µM (inactive)	24.2 µM (inactive)	22 µM (inactive)	32.1 µM (inactive)	11.1 µM (inactive)	29.4 µM (inactive)	18.5 µM (inactive)	22 µM (inactive)	18.4 µM (inactive)	14.5 µM (inactive)	11.4 µM (inactive)	18.8 µM (inactive)	14.6 µM (inactive)
COC(=O)C(CCSC)NC(=O)Cc1ccc(C(=O)c2ccccc2)cc1 (stereo not given)	29 µM (inactive)	> 100 µM (inactive)	86.9 µM (inactive)	88.1 µM (inactive)	25.8 µM (inactive)	25.9 µM (inactive)	35.5 µM (inactive)	37.3 µM (inactive)	> 100 µM (inactive)	78.5 µM (inactive)	> 100 µM (inactive)	> 100 µM (inactive)		32.5 µM (inactive)	40.4 µM (inactive)	82.6 µM (inactive)	31.3 µM (inactive)	59.2 µM (inactive)	
Cc1cc2[nH]c3[nH]c(=O)[nH]c(=O)c3c2cc1C	> 100 µM (inactive)	> 100 µM (inactive)	> 100 µM (inactive)	29 µM (inactive)	> 100 µM (inactive)	> 100 µM (inactive)	> 100 µM (inactive)	24.4 µM (inactive)	> 100 µM (inactive)	> 100 µM (inactive)		> 100 µM (inactive)	> 100 µM (inactive)	47.1 µM (inactive)	> 100 µM (inactive)	89.3 µM (inactive)	27.1 µM (inactive)	> 100 µM (inactive)	> 100 µM (inactive)
N/C(=N\Nc1ccc(Cl)cc1)c1cnccn1	> 100 µM (inactive)	18 µM (inactive)	> 100 µM (inactive)	85.5 µM (inactive)	32.3 µM (inactive)	> 100 µM (inactive)	6.64 µM (inactive)	> 100 µM (inactive)	95.9 µM (inactive)	48.8 µM (inactive)	29.1 µM (inactive)	> 100 µM (inactive)		21.1 µM (inactive)	> 100 µM (inactive)	> 100 µM (inactive)	5.71 µM (inactive)	13 µM (inactive)	> 100 µM (inactive)
N#CC(NNC(=O)c1c(Cl)c(Cl)c(Cl)c(Cl)c1-c1nc2cc(C(=O)c3ccccc3)ccc2[nH]1)c1cccc(Oc2ccccc2)c1 (stereo not given)	19.1 µM (inactive)	20.8 µM (inactive)	28.3 µM (inactive)	25.8 µM (inactive)	27.4 µM (inactive)	36.6 µM (inactive)	25.6 µM (inactive)	19 µM (inactive)		21.3 µM (inactive)	18.6 µM (inactive)		20.7 µM (inactive)	15.4 µM (inactive)	33.8 µM (inactive)	26.6 µM (inactive)	20.6 µM (inactive)	18.9 µM (inactive)	31.3 µM (inactive)
Cc1ccc(Nc2sc(C)cc2C#N)c([N+](=O)[O-])c1	> 100 µM (inactive)	> 100 µM (inactive)	> 100 µM (inactive)	> 100 µM (inactive)		93.5 µM (inactive)	> 100 µM (inactive)	> 100 µM (inactive)	> 100 µM (inactive)	> 100 µM (inactive)	> 100 µM (inactive)	> 100 µM (inactive)	> 100 µM (inactive)		> 100 µM (inactive)	> 100 µM (inactive)	> 100 µM (inactive)	> 100 µM (inactive)	
O[C@H]1[C@H](O)[C@H](O)CN2CCC[C@@H](O)[C@H]12	> 100 µM (inactive)	> 100 µM (inactive)	> 100 µM (inactive)	> 100 µM (inactive)	> 100 µM (inactive)	> 100 µM (inactive)	> 100 µM (inactive)	> 100 µM (inactive)		> 100 µM (inactive)	> 100 µM (inactive)	> 100 µM (inactive)	> 100 µM (inactive)	> 100 µM (inactive)	> 100 µM (inactive)	> 100 µM (inactive)	> 100 µM (inactive)	> 100 µM (inactive)	> 100 µM (inactive)
CCn1c(=O)ccc2ccc(N(CCO)CCO)nc21	> 100 µM (inactive)	> 100 µM (inactive)	> 100 µM (inactive)	> 100 µM (inactive)	> 100 µM (inactive)	> 100 µM (inactive)	> 100 µM (inactive)	> 100 µM (inactive)	> 100 µM (inactive)	> 100 µM (inactive)	> 100 µM (inactive)	> 100 µM (inactive)		> 100 µM (inactive)	> 100 µM (inactive)	> 100 µM (inactive)	> 100 µM (inactive)	> 100 µM (inactive)	> 100 µM (inactive)
O=c1[nH]cnc2c1ncn2[C@@H]1C[C@H]1CO	> 100 µM (inactive)	> 100 µM (inactive)	> 100 µM (inactive)	> 100 µM (inactive)	> 100 µM (inactive)	> 100 µM (inactive)	> 100 µM (inactive)	> 100 µM (inactive)	> 100 µM (inactive)	> 100 µM (inactive)	> 100 µM (inactive)	> 100 µM (inactive)	> 100 µM (inactive)	> 100 µM (inactive)		> 100 µM (inactive)	> 100 µM (inactive)	> 100 µM (inactive)	> 100 µM (inactive)
N=C(N)Nc1nc2cc([N+](=O)[O-])ccc2[nH]1	48.1 µM (inactive)	> 100 µM (inactive)	> 100 µM (inactive)	> 100 µM (inactive)	> 100 µM (inactive)	37.3 µM (inactive)	> 100 µM (inactive)	> 100 µM (inactive)	> 100 µM (inactive)	> 100 µM (inactive)	> 100 µM (inactive)	> 100 µM (inactive)	56.6 µM (inactive)	83 µM (inactive)	> 100 µM (inactive)	> 100 µM (inactive)	> 100 µM (inactive)	69.2 µM (inactive)	81.8 µM (inactive)
